# According to paper PMC4425608 (Pharmaceutical research, 2014):
# Entries after “also recorded” stand apart in the source; their conditions may differ. Like-named read-outs stand apart in the source and are kept apart here.
# Columns and labels:
# [1] = test system: MCT4; conditions: expressed in Xenopus laevis oocytes; cited from earlier work
# [2] = test system: GHB uptake in KNRK cells; assay: Inhibition of [3H]GHB uptake in KNRK cells; type: cell-based; conditions: rat KNRK cells
# [3] = Pharmacokinetics of AR-C155858 in rats following intravenous administration; conditions: 0.1, 1, and 5 mg/kg i.v. bolus
# [4] = test system: MCT2; conditions: expressed in Xenopus laevis oocytes; cited from earlier work
# [5] = test system: GHB-induced respiratory depression; conditions: rats, mean (SD), cited from earlier work
# [6] = Oral GHB toxicokinetics with and without AR-C155858
# [7] = GHB blood-brain partitioning at steady state; conditions: rats; GHB 400 mg/kg i.v. bolus + 208 mg/kg/h i.v. infusion alone; 4 h; mean ± SD
# [8] = rats, mean (SD), cited from earlier work
# [9] = rats, cited from earlier work
# [10] = GHB 1500 mg/kg i.v. bolus alone
# [11] = male, Sprague-Dawley, rat, plasma, po, 1500 mg/kg
# [12] = rats, GHB 1500 mg/kg oral gavage alone, mean (SD)
smiles,measurement,setting,value
"Cc1n[nH]c(C)c1Cc1sc2c(c1C(=O)N1C[C@H](O)CO1)c(=O)n(C)c(=O)n2CC(C)C [AR-C155858, 6-[(3,5-Dimethyl-1H-pyrazol-4-yl)methyl]-5-[[(4S)-4-hydroxy-2-isoxazolidinyl]carbonyl]-3-methyl-1-(2-methylpropyl)thieno[2,3-d]pyrimidine-2,4(1H,3H)-dione]",inhibition of MCT4,[1],no inhibition; also recorded: does not inhibit
same,pre-incubation time giving maximal inhibition of GHB uptake,"[2]; 100 nM AR-C155858, pre-incubation 0-60 min",30 min
same,concentration giving maximal inhibition of GHB uptake,[2]; 30 min pre-incubation,100 nM
same,reversibility of inhibition of GHB uptake after washing the cells,"[2]; 30 min pre-incubation with 100 nM, washed 3 times",not to be rapidly reversible
same,inhibition of GHB uptake,"[2]; linear trend in inhibition up to 30 nM, 30 min pre-incubation",70%
same,AR-C155858 plasma concentration-time profile,[3],biexponential decline and dose-proportional pharmacokinetics
same,inhibition of MCT2,[4],potently inhibited; also recorded: can also inhibit
"O=C(O)CCCO [GHB, γ-hydroxybutyric acid]","AUEC, area under the effect curve for breathing frequency",[5]; GHB 200 mg/kg i.v. bolus alone,2243 (1508) breaths
same,"Emax, maximum effect on breathing frequency",[5]; GHB 200 mg/kg i.v. bolus alone,51.9 (8.51) breaths/ min
same,"Td, duration of effect on breathing frequency",[5]; GHB 200 mg/kg i.v. bolus alone,113 (60.6) min
same,"AUEC, area under the effect curve for breathing frequency",[5]; GHB 600 mg/kg i.v. bolus alone,7987 (1228) breaths
same,"Emax, maximum effect on breathing frequency",[5]; GHB 600 mg/kg i.v. bolus alone,29.5 (6.94) breaths/ min
same,"Td, duration of effect on breathing frequency",[5]; GHB 600 mg/kg i.v. bolus alone,153 (12.5) min
same,"AUEC, area under the effect curve for breathing frequency",[5]; [10],12505 (1995) breaths
same,"Emax, maximum effect on breathing frequency",[5]; [10],15.6 (7.05) breaths/ min
same,"Td, duration of effect on breathing frequency",[5]; [10],281 (72.8) min
same,CL/F,[6]; [11],0.391 L/h/kg
same,Cmax,[6]; [11],659 µg/mL
same,CL renal,"[6]; male, Sprague-Dawley, rat, urine and plasma, po, 1500 mg/kg",0.109 L/h/kg
same,GHB AUC,[6]; [12],233 (30.0) mg.min/ml
same,GHB urinary excretion,[6]; [12],28.2 (10.1) %
same,"Cbrain, brain GHB concentration at steady-state",[7],0.22 ± 0.03 mg/g
same,"Cplasma, plasma GHB concentration at steady-state",[7],0.87 ± 0.05 mg/mL
same,GHB AUC,[8]; GHB 200 mg/kg i.v. bolus alone,26.2 (0.90) mg.min/ml
same,GHB CLR (renal clearance),[8]; GHB 200 mg/kg i.v. bolus alone,0.44 (0.20) ml/min/kg
same,GHB CLT (total clearance),[8]; GHB 200 mg/kg i.v. bolus alone,7.60 (0.29) ml/min/kg
same,GHB urinary recovery,[8]; GHB 200 mg/kg i.v. bolus alone,5.90 (2.86) %
same,GHB AUC,[8]; GHB 600 mg/kg i.v. bolus alone,102 (12.4) mg.min/ml
same,GHB CLR (renal clearance),[8]; GHB 600 mg/kg i.v. bolus alone,1.68 (0.75) ml/min/kg
same,GHB urinary recovery,[8]; GHB 600 mg/kg i.v. bolus alone,27.3 (9.77) %
same,GHB AUC,[8]; [10],288 (39.8) mg.min/ml
same,GHB CLT (total clearance),[8]; [10],5.16 (0.70) ml/min/kg
same,GHB urinary recovery,[8]; [10],61.1 (5.02) %
C[C@H](O)C(=O)O [L-lactate],effect on GHB extracellular fluid concentrations in the frontal cortex,"[9]; higher doses, plasma steady state L-lactate concentrations ≈ 4–5 mM",decreased
same,effect on GHB extracellular fluid concentrations in the frontal cortex,"[9]; lower doses, plasma steady state L-lactate concentrations ≈ 1–2 mM",no significant effect
